Measured values taken from US10508077B2 (FORMA Therapeutics, Inc., priority 2015, dated 2019).

Biological target: T1, Full length human recombinant HDAC8 protein (Homo sapiens, UniProt Q9BY41)
T1 construct: Full length human recombinant HDAC8 protein was expressed in baculoviral system; made in house
T1 sequence (Q9BY41 1-377): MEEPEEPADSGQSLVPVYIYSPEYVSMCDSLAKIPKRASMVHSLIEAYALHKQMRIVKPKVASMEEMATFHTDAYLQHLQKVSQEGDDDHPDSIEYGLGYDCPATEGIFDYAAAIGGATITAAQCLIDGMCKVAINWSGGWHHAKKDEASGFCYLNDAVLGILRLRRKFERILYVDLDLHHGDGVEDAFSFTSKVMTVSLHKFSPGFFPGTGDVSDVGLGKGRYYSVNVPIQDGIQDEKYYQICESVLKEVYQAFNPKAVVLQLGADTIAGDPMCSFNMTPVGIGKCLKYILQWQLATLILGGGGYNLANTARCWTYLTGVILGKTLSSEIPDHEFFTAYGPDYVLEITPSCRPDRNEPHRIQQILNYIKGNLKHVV
Assay: In vitro histone deacetylase assay: enzymatic HDAC8 assay, electrophoretic mobility shift
Assay type: biochemical
Details: substrate RHKK(Ac)-NH2, 1 nM enzyme, compounds listed under IC50 range headings
Method: The enzymatic HDAC8 assay was performed using electrophoretic mobility shift assay. Full length human recombinant HDAC8 protein was expressed in baculoviral system and purified by affinity chromatography. The enzymatic reactions were assembled in 384 well plates in a total volume of 25 μL in a reaction buffer composing: 100 mM HEPES, pH7.5, 25 mM KC, 0.1% bovine serum albumin, 0.01% Triton X-100, 1% DMSO (from compounds) 2 μM of the fluorescently labeled peptide substrate and enzyme. The enzyme was added at a final concentration of 1 nM. The peptide substrate RHKK(Ac)-NH2 was used. The compounds were tested at 12 concentrations spaced by 3× dilution intervals. Negative control samples (0%-inhibition in the absence of inhibitor) and positive control samples (100%-inhibition) were assembled in replicates of four in each assay plate. The reactions were incubated at 25° C. and quenched by the addition of 45 μL of termination buffer (100 mM HEPES, pH 7.5, 0.01% Triton X-100, 0.05% SDS).
The terminated assay plates were analyzed on LabChip® 3000 microfluidic electrophoresis instrument (Perkin Elmer/Caliper Life Sciences). The fluorescence intensity of the electrophoretically separated de-acetylated product and substrate peptide was measured. Activity in each sample was determined as the product to sum ratio (PSR): P/(S+P), where P is the peak height of the product peptide and S is the peak height of the substrate peptide. Percent inhibition (Pinh) is determined using the following equation: Pinh=(PSR0%−PSRinh)/(PSR0%−PSR100%)*100, where PSRinh is the product sum ratio in the presence of inhibitor, PSR0% is the average product sum ration in the absence of inhibitor and PSR 100% is the average product sum ratio in 100%-inhibition control samples. The IC50 values of inhibitors were determined by fitting the %-inhibition curves with 4 parameter dose-response model using XLfit 4 software. Ranges of IC50 values for compounds of the invention are disclosed in Table 26.

| SMILES | IC50 [nM] |
| --- | --- |
| O=C(/C=C/c1ccccc1N1CCN(C(=O)C2(c3ccccc3)CC2)CC1)NO [Example I-36, (E)-N-hydroxy-3-(2-(4-(1-phenylcyclopropane-1-carbonyl)piperazin-1-yl)phenyl)acrylamide] | 1000 to 10000 |
| O=C(/C=C/c1ccccc1N1CCN(C(=O)C2(c3ccccc3)CCC2)CC1)NO [Example I-37, (E)-N-hydroxy-3-(2-(4-(1-phenylcyclobutane-1-carbonyl)piperazin-1-yl)phenyl)acrylamide] | 1000 to 10000 |
| O=C(/C=C/c1ccccc1NC(=O)c1nccn1-c1ccccc1C(F)(F)F)NO [Example I-38, (E)-N-(2-(3-(hydroxyamino)-3-oxoprop-1-en-1-yl)phenyl)-1-(2-(trifluoromethyl)phenyl)-1H-imidazole-2-carboxamide] | 1000 to 10000 |
| O=C(/C=C/c1ccccc1NCc1nc2ccccc2[nH]1)NO [Example I-39, (E)-3-(2-(((1H-benzo[d]imidazol-2-yl)methyl)amino)phenyl)-N-hydroxyacrylamide] | < 1000 |
| CC(=O)Nc1cccc(C(=O)Nc2ccccc2/C=C/C(=O)NO)c1 [Example I-42, (E)-3-acetamido-N-(2-(3-(hydroxyamino)-3-oxoprop-1-en-1-yl)phenyl)benazmide] | < 1000 |
| O=C(/C=C/c1ccccc1NCc1cccc(C(F)(F)F)c1)NO [Example I-46, (E)-N-hydroxy-3-(2-((3-(trifluoromethyl)benzyl)amino)phenyl)acrylamide] | < 1000 |
| CC(C)(C)OC(=O)N1CCC2(CCC(C(=O)Nc3ccccc3/C=C/C(=O)NO)CC2)CC1 [Example I-47, tert-butyl-(E)-9-((2-(3-(hydroxyamino)-3-oxoprop-1-en-1-yl)phenyl)carbamoyl)-3-azaspiro[5.4]undecane-3-carboxylate] | < 1000 |
| CC(C)(C)OC(=O)N1CCC2(CC1)CCN(c1ccccc1/C=C/C(=O)NO)CC2 [Example I-50, tert-butyl-(E)-9-(2-(3-(hydroxyamino)-3-oxoprop-1-en-1-yl)phenyl)-3,9-diazaspiro[5.5]undecane-3-carboxylate] | < 1000 |
| N#Cc1ccc2nc(CNc3ccccc3/C=C/C(=O)NO)[nH]c2c1 [Example I-51] | < 1000 |
| O=C(/C=C/c1ccccc1N1CCC2(CCNCC2)CC1)NO [Example I-52, (E)-3-(2-(3,9-diazaspiro[5.5]undecan-3-yl)phenyl)-N-hydroxyacrylamide 2,2,2-trifluoroacetate] | < 1000 |
| NC(=O)CCc1cccc(CNc2ccccc2/C=C/C(=O)NO)c1 [Example I-53, (E)-3-(2-((3-(3-amino-3-oxopropyl)benzyl)amino)phenyl)-N-hydroxyacrylamide] | < 1000 |
| O=C(/C=C/c1ccccc1NCC1CCCCC1)NO [Example I-55, (E)-3-(2-((cyclohexylmethyl)amino)phenyl)-N-hydroxyacrylamide] | < 1000 |
| O=C(/C=C/c1ccccc1NC(=O)C1CCCCC1)NO [Example I-56, (E)-N-(2-(3-(hydroxyamino)-3-oxoprop-1-en-1-yl)phenyl)cyclohexanecarboxamide] | < 1000 |
| O=C(/C=C/c1ccccc1N1CCCCC1)NO [Example I-57, (E)-N-hydroxy-3-(2-(piperidin-1-yl)phenyl)acrylamide] | < 1000 |
| CC(C)(C)OC(=O)N1CCN(c2ccccc2/C=C/C(=O)NO)CC1 [Example I-58, tert-butyl (E)-4-(2-(3-(hydroxyamino)-3-oxoprop-1-en-1-yl)phenyl)piperazine-1-carboxylate] | < 1000 |
| O=C(/C=C/c1ccccc1N1CCNCC1)NO [Example I-59, (E)-N-hydroxy-3-(2-(piperazin-1-yl)phenyl)acrylamide 2,2,2-trifluoroacetate] | < 1000 |
| CC(C)(C)OC(=O)NC1CCN(c2ccccc2/C=C/C(=O)NO)CC1 [Example I-60, tert-butyl (E)-(1-(2-(3-(hydroxyamino)-3-oxoprop-1-en-1-yl)phenyl)piperidin-4-yl)carbamate] | < 1000 |
| CC(C(=O)Nc1ccccc1/C=C/C(=O)NO)N1CCS(=O)(=O)CC1 (centres unmarked) [Example I-63, (E)-3-(2-(2-(1,1-dioxidothiomorpholino)propanamide)phenyl)-N-hydroxyacrylamide] | < 1000 |

| SMILES | IC50 [nM] |
| --- | --- |
| O=C(/C=C/c1ccccc1NC(=O)C1(c2ccccc2)CC1)NO [Example I-64, (E)-N-(2-(3-(hydroxyamino)-3-oxoprop-1-en-1-yl)phenyl)-1-phenylcyclopropane-1-carboxamide] | < 1000 |
| O=C(/C=C/c1ccccc1NC(=O)c1cc2n(n1)CCC2)NO [Example I-74, (E)-N-(2-(3-(hydroxyamino)-3-oxoprop-1-en-1-yl)phenyl)-5,6-dihydro-4H-pyrrolo[1,2-b]pyrazole-2-carboxamide] | < 1000 |
| Cn1nc(C(F)(F)F)cc1-c1ccc(C(=O)Nc2ccccc2/C=C/C(=O)NO)s1 [Example I-78, (E)-N-(2-(3-(hydroxyamino)-3-oxoprop-1-en-1-yl)phenyl)-5-(1-methyl-3-(trifluoromethyl)-1H-pyrazol-5-yl)thiophene-2-carboxamide] | < 1000 |
| Cc1cc(C(=O)Nc2ccccc2/C=C/C(=O)NO)n(C)n1 [Example I-80, (E)-N-(2-(3-(hydroxyamino)-3-oxoprop-1-en-1-yl)phenyl)-1,3-dimethyl-1H-pyrazole-5-carboxamide] | < 1000 |
| O=C(/C=C/c1ccccc1NC(=O)c1cc2ccccn2n1)NO [Example I-82, (E)-N-(2-(3-(hydroxyamino)-3-oxoprop-1-en-1-yl)phenyl)pyrazolo[1,5-a]pyridine-2-carboxamide] | < 1000 |
| O=C(/C=C/c1ccccc1NCc1ccc(Cl)cc1)NO [Example I-86, (E)-3-(2-((4-chlorobenzyl)amino)phenyl)-N-hydroxyacrylamide] | < 1000 |
| CC(C)c1ccc(CNc2ccccc2/C=C/C(=O)NO)nc1 [Example I-87, (E)-N-hydroxy-3-(2-(((5-isopropylpyridin-2-yl)methyl)amino)phenyl)acrylamide] | < 1000 |
| O=C(/C=C/c1ccccc1NCc1ccnc2ccccc12)NO [Example I-88, (E)-N-hydroxy-3-(2-((quinolin-4-ylmethyl)amino)phenyl)acrylamide] | < 1000 |
| COc1cncc(CNc2ccccc2/C=C/C(=O)NO)c1 [Example I-90] | < 1000 |
| O=C(/C=C/c1ccccc1NCc1ccc(-c2ccccn2)cc1)NO [Example I-92, (E)-N-hydroxy-3-(2-((4-(pyridin-2-yl)benzyl)amino)phenyl)acrylamide] | < 1000 |
| O=C(/C=C/c1ccccc1NCc1ccc(-c2ccccc2)nc1)NO [Example I-99, (E)-N-hydroxy-3-(2-(((6-phenylpyridin-3-yl)methyl)amino)phenyl)acrylamide] | < 1000 |
| O=C(/C=C/c1ccccc1NCc1cc2cccnc2[nH]1)NO [Example I-102, (E)-3-(2-(((1H-pyrrolo[2,3-b]pyridin-2-yl)methyl)amino)phenyl)-N-hydroxyacrylamide] | < 1000 |
| CC(C)Nc1ncc(CNc2ccccc2/C=C/C(=O)NO)cn1 [Example I-105, (E)-N-hydroxy-3-(2-(((2-(isopropylamino)pyrimidin-5-yl)methyl)amino)phenyl)acrylamide] | < 1000 |
| O=C(/C=C/c1ccccc1NCC1CCOC1)NO (centres unmarked) [Example I-106, (E)-N-hydroxy-3-(2-(((tetrahydrofuran-3-yl)methyl)amino)phenyl)acrylamide] | < 1000 |
| NC(=O)C1CCC2(CC1)CCN(c1ccccc1/C=C/C(=O)NO)CC2 [Example I-108, (E)-3-(2-(3-(hydroxyamino)-3-oxoprop-1-en-1-yl)phenyl)-3-azaspiro[5.5]undecane-9-carboxamide] | < 1000 |
| CC(C)(C)OC(=O)N1CCCC2(CCN(c3ccccc3/C=C/C(=O)NO)CC2)C1 [Example I-109, tert-butyl (E)-9-(2-(3-(hydroxyamino)-3-oxoprop-1-en-1-yl)phenyl)-2,9-diazaspiro[5.5]undecane-2-carboxylate] | < 1000 |
| O=C(/C=C/c1ccccc1N1CCC2(CCCNC2)CC1)NO [Example I-110, (E)-3-(2-(2,9-diazaspiro[5.5]undecan-9-yl)phenyl)-N-hydroxyacrylamide 2,2,2-trifluoroacetate] | < 1000 |
